In PubChem BioAssay (NCI):
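Dose response: 5 concentrations. Exposure: 48 h. Format: 96-well plates. Endpoint: linear interpolation; highest concentration if not reached. The concentration for full growth arrest is given as TGI.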

Columns and labels:
Assay in all cases: NCI anticancer screen, dose series, 48 h
HL-60(TB) leukemia = test system: HL-60(TB) leukemia
786-0 renal = test system: 786-0 renal
SK-MEL-28 melanoma = test system: SK-MEL-28 melanoma
MDA-N = test system: MDA-N
SF-539 CNS = test system: SF-539 CNS
NCI-H460 lung = test system: NCI-H460 lung
MOLT-4 leukemia = test system: MOLT-4 leukemia
NCI-H226 lung = test system: NCI-H226 lung
UACC-257 melanoma = test system: UACC-257 melanoma
OVCAR-5 ovarian = test system: OVCAR-5 ovarian
SK-MEL-5 melanoma = test system: SK-MEL-5 melanoma
A549 NSCLC = test system: A549 NSCLC
OVCAR-3 ovarian = test system: OVCAR-3 ovarian
ACHN renal = test system: ACHN renal
HT29 colon = test system: HT29 colon
MCF7 breast = test system: MCF7 breast
HOP-92 NSCLC = test system: HOP-92 NSCLC
DU-145 prostate = test system: DU-145 prostate
SNB-19 CNS = test system: SNB-19 CNS
NCI-H522 lung = test system: NCI-H522 lung
U251 CNS = test system: U251 CNS
CCRF-CEM leukemia = test system: CCRF-CEM leukemia
SN12C renal = test system: SN12C renal
RXF 393 renal = test system: RXF 393 renal
A498 renal = test system: A498 renal
OVCAR-4 ovarian = test system: OVCAR-4 ovarian
T-47D breast = test system: T-47D breast
IGROV1 ovarian = test system: IGROV1 ovarian
SK-OV-3 ovarian = test system: SK-OV-3 ovarian
CAKI-1 renal = test system: CAKI-1 renal
NCI-H23 lung = test system: NCI-H23 lung
COLO 205 colon = test system: COLO 205 colon
SNB-75 CNS = test system: SNB-75 CNS
BT-549 breast = test system: BT-549 breast
UO-31 renal = test system: UO-31 renal
HOP-62 NSCLC = test system: HOP-62 NSCLC
MDA-MB-435 = test system: MDA-MB-435
KM12 colon = test system: KM12 colon
SR leukemia = test system: SR leukemia
SF-268 CNS = test system: SF-268 CNS
K-562 leukemia = test system: K-562 leukemia
TK-10 renal = test system: TK-10 renal
MDA-MB-231 breast = test system: MDA-MB-231 breast
HCC-2998 colon = test system: HCC-2998 colon
EKVX NSCLC = test system: EKVX NSCLC
OVCAR-8 ovarian = test system: OVCAR-8 ovarian
UACC-62 melanoma = test system: UACC-62 melanoma
SW-620 colon = test system: SW-620 colon
HS 578T breast = test system: HS 578T breast
PC-3 prostate = test system: PC-3 prostate
MALME-3M melanoma = test system: MALME-3M melanoma
HCT-116 colon = test system: HCT-116 colon
M14 melanoma = test system: M14 melanoma
SF-295 CNS = test system: SF-295 CNS
SK-MEL-2 melanoma = test system: SK-MEL-2 melanoma
RPMI-8226 leukemia = test system: RPMI-8226 leukemia
HCT-15 colon = test system: HCT-15 colon
NCI/ADR-RES ovarian = test system: NCI/ADR-RES ovarian

For `CCCCCCCC(CC(=O)NC(CO)C(=O)NC(CO)CC(C)C)OC(=O)CC(CCCCCCC)OC(=O)CC(CCCCCCC)OC1OC(C)C(O)C(OC2OC(C)C(O)C(O)C2OC(C)=O)C1O` (stereo not drawn), the TGI (HL-60(TB) leukemia) was 10.4 µM, the TGI (786-0 renal) was 17.6 µM and the TGI (SK-MEL-28 melanoma) was 21.6 µM. It also gave a TGI (MDA-N) of 16 µM, a TGI (SF-539 CNS) of 23.5 µM and a TGI (NCI-H460 lung) of 15.4 µM. It also gave a TGI (MOLT-4 leukemia) of 10.5 µM, a TGI (NCI-H226 lung) of 39 µM and a TGI (UACC-257 melanoma) of 13.5 µM. It also gave a TGI (OVCAR-5 ovarian) of 21.9 µM, a TGI (SK-MEL-5 melanoma) of 21.7 µM and a TGI (A549 NSCLC) of 25.9 µM. It also gave a TGI (OVCAR-3 ovarian) of 25.6 µM, a TGI (ACHN renal) of 28.9 µM and a TGI (HT29 colon) of 13.7 µM. The TGI (MCF7 breast) was 23.8 µM, the TGI (HOP-92 NSCLC) was 22 µM and the TGI (DU-145 prostate) was 22.4 µM. It also gave a TGI (SNB-19 CNS) of 20.8 µM, a TGI (NCI-H522 lung) of 26.8 µM and a TGI (U251 CNS) of 20.1 µM. It also gave a TGI (CCRF-CEM leukemia) of 11.8 µM, a TGI (SN12C renal) of 16.8 µM and a TGI (RXF 393 renal) of 9.29 µM. It also gave a TGI (A498 renal) of 29.4 µM, a TGI (OVCAR-4 ovarian) of 19.9 µM and a TGI (T-47D breast) of 21 µM. It also gave a TGI (IGROV1 ovarian) of 23 µM, a TGI (SK-OV-3 ovarian) of 30.3 µM and a TGI (CAKI-1 renal) of 28.3 µM. The TGI (NCI-H23 lung) was 22 µM, the TGI (COLO 205 colon) was 5.47 µM and the TGI (SNB-75 CNS) was 17.6 µM. It also gave a TGI (BT-549 breast) of 25.1 µM, a TGI (UO-31 renal) of 30.7 µM and a TGI (HOP-62 NSCLC) of 27.1 µM. It also gave a TGI (MDA-MB-435) of 13.8 µM, a TGI (KM12 colon) of 10.8 µM and a TGI (SR leukemia) of 4.93 µM. The TGI (SF-268 CNS) was 21.2 µM, the TGI (K-562 leukemia) was 16.8 µM and the TGI (TK-10 renal) was 26 µM. The TGI (MDA-MB-231 breast) was 21.5 µM, the TGI (HCC-2998 colon) was 25.8 µM and the TGI (EKVX NSCLC) was 27.9 µM. The TGI (OVCAR-8 ovarian) was 22.4 µM, the TGI (UACC-62 melanoma) was 18.6 µM and the TGI (SW-620 colon) was 22.2 µM. The TGI (HS 578T breast) was 19.1 µM, the TGI (PC-3 prostate) was 15.8 µM and the TGI (MALME-3M melanoma) was 23.2 µM. The TGI (HCT-116 colon) was 15.1 µM, the TGI (M14 melanoma) was 18.7 µM and the TGI (SF-295 CNS) was 21.7 µM.

In the case of `COc1cc(C2c3cc4c(cc3OC(Nc3ccccc3)C2C)OCO4)cc(OC)c1O` (stereo not drawn), the TGI (HL-60(TB) leukemia) is reported as 4.34 µM, the TGI (786-0 renal) is reported as 21.7 µM and the TGI (SK-MEL-28 melanoma) is reported as 28.4 µM. For the same compound, the TGI (MDA-N) was 3.01 µM, the TGI (SF-539 CNS) was 8.9 µM and the TGI (MOLT-4 leukemia) was 11.2 µM. For the same compound, the TGI (NCI-H226 lung) was 39.8 µM, the TGI (UACC-257 melanoma) was 34 µM and the TGI (OVCAR-5 ovarian) was 26.2 µM. For the same compound, the TGI (SK-MEL-5 melanoma) was 10.7 µM, the TGI (A549 NSCLC) was 19.2 µM and the TGI (OVCAR-3 ovarian) was 24.6 µM. The TGI (HT29 colon) was 18.1 µM, the TGI (MCF7 breast) was 24.6 µM and the TGI (HOP-92 NSCLC) was 48.7 µM. The TGI (DU-145 prostate) was 19.6 µM, the TGI (SNB-19 CNS) was > 100 µM and the TGI (NCI-H522 lung) was 9.16 µM. The TGI (U251 CNS) was 14.2 µM, the TGI (SN12C renal) was 21.2 µM and the TGI (RXF 393 renal) was 19.7 µM. For the same compound, the TGI (OVCAR-4 ovarian) was 48.2 µM, the TGI (T-47D breast) was > 100 µM and the TGI (IGROV1 ovarian) was 48 µM. For the same compound, the TGI (SK-MEL-2 melanoma) was 8.59 µM, the TGI (CAKI-1 renal) was > 100 µM and the TGI (RPMI-8226 leukemia) was 9.86 µM. The TGI (NCI-H23 lung) was 33.5 µM, the TGI (COLO 205 colon) was 33.5 µM and the TGI (SNB-75 CNS) was 7.35 µM. It also gave a TGI (BT-549 breast) of 26 µM, a TGI (HCT-15 colon) of 17.5 µM and a TGI (UO-31 renal) of 25.8 µM. The TGI (MDA-MB-435) was 1.95 µM, the TGI (KM12 colon) was 38.7 µM and the TGI (SF-268 CNS) was 39.4 µM. The TGI (K-562 leukemia) was 7.49 µM, the TGI (TK-10 renal) was 20.2 µM and the TGI (MDA-MB-231 breast) was 19.3 µM. It also gave a TGI (HCC-2998 colon) of 14.6 µM, a TGI (NCI/ADR-RES ovarian) of 8.02 µM and a TGI (OVCAR-8 ovarian) of 23.8 µM. For the same compound, the TGI (UACC-62 melanoma) was 23 µM, the TGI (SW-620 colon) was 16.3 µM and the TGI (PC-3 prostate) was 13.4 µM. The TGI (MALME-3M melanoma) was 21.6 µM, the TGI (HCT-116 colon) was 16 µM and the TGI (M14 melanoma) was 60.7 µM. The TGI (SF-295 CNS) was 15.6 µM.
